Earlier results, collected in patent publication US20230228656A1, “Functionalized Blood Sampling Device and Method for PEth Measurement” (CAPITAINER AB, priority 2020, published 2023).

Test system: PLD
Conditions: literature assessment; considered unsuitable for clinical use; cited from earlier work

SMILES	potency as PLD inhibitor
O=C(NCCN1CCC(n2c(=O)[nH]c3ccccc32)CC1)c1cc2cc(F)ccc2[nH]1 [FIPI, 5-fluoro-2-indolyl-deschlorohalopemide]	low potency
O=C(NCCN1CCC(n2c(=O)[nH]c3cc(Cl)ccc32)CC1)c1ccc(F)cc1 [halopemide]	low potency
